Measured values published in patent US5521311A, “5-aminoacetylaminosulfonanilide compounds” (Taisho Pharmaceutical Co., Ltd., priority 1993, dated 1996).
Where a name gives a salt, the structure may show the parent alone. Read-outs that look alike come from different tables or passages of the source.

Assays:
[1] = system: adjuvant arthritis pain (squeaking response); test: Adjuvant arthritis (pain) test; type: in vivo, Lewis strain rats; conditions: squeaking response over 5 hours after oral administration
adjuvant arthritis = test: Adjuvant arthritis (therapy) test; type: in vivo, Lewis strain rats; conditions: foot volume on the day after final administration
Protocol: Experiment 2 [Adjuvant arthritis (therapy) test]
An adjuvant arthritis (therapy) test was carried out according to the method of Winder et al [Arthritis Rheum., vol. 12, page 472 (1969)].
Seven Lewis strain rats (for each group) were administered subcutaneously 0.7% Mycobacterium tuberculosis suspended in liquid paraffin into the left hind foot pad to induce adjuvant arthritis. 15 to 18 Days after the administration of adjuvant, rats with fully developed arthritis were administered orally with test drugs [the compound (a), (b), (i), (j), (k) and (m) of the present invention]and the control drug (indomethacin), each suspended in 5% aqueous gum arabic solution in an amount of 1 ml per 100 g of body weight once a day for 4 days.
On the day after the final administration, the volume of the foot was determined, and the edema inhibition rate (%) was calculated for the therapeutical effect. Doses of the test drugs were each 0.5 mg/kg, and dose of the control drug (indomethacin) was 1.0 mg/kg.

carrageenin foot edema = test: Carrageenin foot edema test; type: in vivo, Wister strain rats; conditions: for inhibition in vivo at 1 mg/kg / inhibition in vivo at 0.5 mg/kg: Rattus norvegicus, po, 3 h, read-out: Edema Inhibition rate; for inhibition in vivo at 0.5 mg/kg: *: dose of 0.5 mg/kg, orally
Protocol: Experiment 1 [Carrageenin foot edema test]
A carrageenin foot edema test was carried out according to the method of Winter et al [Proc. Soc. Exp. Biol. Med., vol. 111, page 544 (1962)].
Six Wister strain rats (for each group) were administered orally with the test drugs [the compounds (a) to (n) of the present invention] and the control drug (indomethacin), each suspended in 5% aqueous gum arabic solution in an amount of 1 ml per 100 g of body weight. An hour later, 0.1 ml of 1% carrageenin was administered subcutaneously into the left hind foot pad. Three hours after the administration of carrageenin, the volume of the foot was determined, and the edema inhibition rate (%) was calculated for the anti-inflammatory effect.
Doses of the test drugs (a) to (l) and the control drug (indomethacin) were each 1 mg/kg, and doses of test drugs (m) and (n) were each 0.5 mg/kg.

[2] = test drugs 0.5 mg/kg orally once a day for 4 days
[3] = 1 mg/kg orally, 1 hour before 1% carrageenin, foot volume 3 hours after carrageenin
[4] = 1 hour before 1% carrageenin, foot volume 3 hours after carrageenin

## CS(=O)(=O)Nc1ccc([N+](=O)[O-])cc1Oc1ccccc1 [Control drug, N-(4-nitro-2-phenoxyphenyl)methanesulfonamide, reference compound]
[1]; control drug, dose not separately stated
  Inhibition rate: 19.4%

## CCCCNCC(=O)Nc1cc(NS(C)(=O)=O)c(Oc2ccccc2)cc1[N+](=O)[O-] [Example 1, N-[5-(n-butylaminoacetylamino)4-nitro-2-phenoxyphenyl]methanesulfonamide]
Adjuvant arthritis; [2]
  Edema Inhibition rate: 61.1%
Carrageenin foot edema; [3]
  inhibition in vivo at 1 mg/kg: 34.6%
[1]; test drugs each 1.0 mg/kg
  Inhibition rate: 50.6%

## CCCNCC(=O)Nc1cc(NS(C)(=O)=O)c(Oc2ccccc2)cc1[N+](=O)[O-] [Example 2, N-[4-nitro-5-(n-propylaminoacetylamino)-2-phenoxyphenyl]methanesulfonamide]
Adjuvant arthritis; test drugs 0.5 mg/kg orally once a day for 4 days, listed as b
  Edema Inhibition rate: 54.4%
Carrageenin foot edema; [3]
  inhibition in vivo at 1 mg/kg: 30.2%
[1]; test drugs each 1.0 mg/kg, listed as b
  Inhibition rate: 47.5%

## CS(=O)(=O)Nc1cc(NC(=O)CNC2CC2)c([N+](=O)[O-])cc1Oc1ccccc1 [Example 5]
Carrageenin foot edema; [3]
  inhibition in vivo at 1 mg/kg: 31.4%

## CS(=O)(=O)Nc1cc(NC(=O)CNC2CCCC2)c([N+](=O)[O-])cc1Oc1ccccc1 [Example 7]
Carrageenin foot edema; [3]
  inhibition in vivo at 1 mg/kg: 27.8%

## CS(=O)(=O)Nc1cc(NC(=O)CNC2CCCCC2)c([N+](=O)[O-])cc1Oc1ccccc1 [Example 8]
Carrageenin foot edema; [3]
  inhibition in vivo at 1 mg/kg: 32.7%

## C=CCNCC(=O)Nc1cc(NS(C)(=O)=O)c(Oc2ccccc2)cc1[N+](=O)[O-] [Example 9]
Carrageenin foot edema; [3]
  inhibition in vivo at 1 mg/kg: 31.9%

## CS(=O)(=O)Nc1cc(NC(=O)CNCc2ccccc2)c([N+](=O)[O-])cc1Oc1ccccc1 [Example 10]
Carrageenin foot edema; [3]
  inhibition in vivo at 1 mg/kg: 35.8%

## CNCC(=O)Nc1cc(NS(C)(=O)=O)c(Oc2ccccc2)cc1[N+](=O)[O-] [Example 20, N-(5-methylaminoacetylamino-4-nitro-2-phenoxyphenyl)methanesulfonamide]
Adjuvant arthritis; [2]
  Edema Inhibition rate: 53.0%
Carrageenin foot edema; [3]
  inhibition in vivo at 1 mg/kg: 41.8%

## CCNCC(=O)Nc1cc(NS(C)(=O)=O)c(Oc2ccccc2)cc1[N+](=O)[O-] [Example 21, N-(5-ethylaminoacetylamino-4-nitro-2-phenoxyphenyl)methanesulfonamide]
Adjuvant arthritis; [2]
  Edema Inhibition rate: 54.2%
Carrageenin foot edema; [3]
  inhibition in vivo at 1 mg/kg: 39.9%

## CS(=O)(=O)Nc1cc(NC(=O)CN)c([N+](=O)[O-])cc1Oc1ccccc1 [Example 22, N-(5-aminoacetylamino-4-nitro-2-phenoxyphenyl)methanesulfonamide]
Adjuvant arthritis; [2]
  Edema Inhibition rate: 52.9%
Carrageenin foot edema; [3]
  inhibition in vivo at 1 mg/kg: 46.6%
[1]; test drugs each 1.0 mg/kg
  Inhibition rate: 41.9%

## CCCCNCC(=O)Nc1cc(NS(C)(=O)=O)c(Oc2ccccc2)cc1[N+](=O)[O-].Cl [Example 23, N-[5-(n-butylaminoacetylamino)-4-nitro-2-phenoxyphenyl]methanesulfonamide hydrochloride]
Carrageenin foot edema; [3]
  Edema Inhibition rate: 25.1%

## CCCNCC(=O)Nc1cc(NS(C)(=O)=O)c(Oc2ccccc2)cc1[N+](=O)[O-] [Example 24, N-[4-nitro-5-(n-propylaminoacetylamino)-2-phenoxyphenyl]methanesulfonamidehydrochloride]
Adjuvant arthritis; test drugs 0.5 mg/kg orally once a day for 4 days, listed as m
  Edema Inhibition rate: 53.0%
Carrageenin foot edema; [4]
  inhibition in vivo at 0.5 mg/kg: 22.4%
[1]; test drugs each 1.0 mg/kg, listed as m
  Inhibition rate: 52.1%

## CS(=O)(=O)Nc1cc(NC(=O)CN)c([N+](=O)[O-])cc1Oc1ccccc1 [Example 25, N-(5-aminoacetylamino-4-nitro-2-phenoxyphenyl)methanesulfonamide hydrochloride]
Carrageenin foot edema; [4]
  inhibition in vivo at 0.5 mg/kg: 27.9%

## COc1ccc2c(c1)c(CC(=O)O)c(C)n2C(=O)c1ccc(Cl)cc1 [indomethacin, reference compound]
Adjuvant arthritis; control drug 1.0 mg/kg orally once a day for 4 days
  Edema Inhibition rate: 39.5%
Carrageenin foot edema
  inhibition in vivo at 1 mg/kg: 21.4%

## N-[2-Cyclohexyloxy-5-(n-propylaminoacetylamino)phenyl]methanesulfonamide [Example 18]
Carrageenin foot edema; [3]
  Edema Inhibition rate: 36.0%
